Experimental data as given in PubChem BioAssay (NCI).
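These data come from cells grown in 96-well plates and exposed to compound for 48 hours at five concentrations. GI50: concentration for 50% inhibition of growth. TGI: total growth inhibition.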

Legend:
Test in all cases: inhibition of tumour cell growth, NCI panel, 48 h
SK-MEL-28 melanoma = tested on: SK-MEL-28 melanoma
LOX IMVI melanoma = tested on: LOX IMVI melanoma
MOLT-4 leukemia = tested on: MOLT-4 leukemia
DU-145 prostate = tested on: DU-145 prostate
OVCAR-4 ovarian = tested on: OVCAR-4 ovarian
HS 578T breast = tested on: HS 578T breast
SN12C renal = tested on: SN12C renal
M14 melanoma = tested on: M14 melanoma
OVCAR-3 ovarian = tested on: OVCAR-3 ovarian
MDA-MB-231 breast = tested on: MDA-MB-231 breast
MDA-MB-435 = tested on: MDA-MB-435
U251 CNS = tested on: U251 CNS
NCI-H23 lung = tested on: NCI-H23 lung
ACHN renal = tested on: ACHN renal
NCI-H460 lung = tested on: NCI-H460 lung
SW-620 colon = tested on: SW-620 colon
SNB-19 CNS = tested on: SNB-19 CNS
TK-10 renal = tested on: TK-10 renal
COLO 205 colon = tested on: COLO 205 colon
RPMI-8226 leukemia = tested on: RPMI-8226 leukemia
MCF7 breast = tested on: MCF7 breast
HCT-15 colon = tested on: HCT-15 colon
K-562 leukemia = tested on: K-562 leukemia
786-0 renal = tested on: 786-0 renal
HT29 colon = tested on: HT29 colon
HCC-2998 colon = tested on: HCC-2998 colon
IGROV1 ovarian = tested on: IGROV1 ovarian
SK-MEL-5 melanoma = tested on: SK-MEL-5 melanoma
SF-295 CNS = tested on: SF-295 CNS
SNB-75 CNS = tested on: SNB-75 CNS
CAKI-1 renal = tested on: CAKI-1 renal
HOP-62 NSCLC = tested on: HOP-62 NSCLC
NCI/ADR-RES ovarian = tested on: NCI/ADR-RES ovarian
CCRF-CEM leukemia = tested on: CCRF-CEM leukemia
HL-60(TB) leukemia = tested on: HL-60(TB) leukemia
SF-268 CNS = tested on: SF-268 CNS
SK-OV-3 ovarian = tested on: SK-OV-3 ovarian
PC-3 prostate = tested on: PC-3 prostate
UACC-62 melanoma = tested on: UACC-62 melanoma
OVCAR-5 ovarian = tested on: OVCAR-5 ovarian
A549 NSCLC = tested on: A549 NSCLC
EKVX NSCLC = tested on: EKVX NSCLC
NCI-H226 lung = tested on: NCI-H226 lung
BT-549 breast = tested on: BT-549 breast
MALME-3M melanoma = tested on: MALME-3M melanoma
T-47D breast = tested on: T-47D breast
KM12 colon = tested on: KM12 colon
SF-539 CNS = tested on: SF-539 CNS
A498 renal = tested on: A498 renal
HOP-92 NSCLC = tested on: HOP-92 NSCLC
HCT-116 colon = tested on: HCT-116 colon

Q: With `Cc1ccc(NCCN2CCCCC2)c2c(=O)c3ccccc3sc12` as the compound, how does the GI50 (SK-MEL-28 melanoma) read?
A: 2.43 µM

Q: What about the TGI (SK-MEL-28 melanoma) of the same compound?
A: 4.16 µM

Q: And the GI50 (LOX IMVI melanoma)?
A: 1.78 µM

Q: And the TGI (LOX IMVI melanoma)?
A: 3.68 µM

Q: And the GI50 (MOLT-4 leukemia)?
A: 1.99 µM

Q: What about the TGI (MOLT-4 leukemia) of the same compound?
A: 4.91 µM

Q: And the GI50 (DU-145 prostate)?
A: 3.76 µM

Q: What about the TGI (DU-145 prostate) of the same compound?
A: 14.4 µM

Q: And the GI50 (OVCAR-4 ovarian)?
A: 5.57 µM

Q: And the TGI (OVCAR-4 ovarian)?
A: 18.1 µM

Q: And the GI50 (HS 578T breast)?
A: 2.03 µM

Q: And the TGI (HS 578T breast)?
A: 5.17 µM

Q: What about the GI50 (SN12C renal) of the same compound?
A: 4.35 µM

Q: What about the TGI (SN12C renal) of the same compound?
A: 17.6 µM

Q: And the GI50 (M14 melanoma)?
A: 1.61 µM

Q: What about the TGI (M14 melanoma) of the same compound?
A: 2.97 µM

Q: What about the GI50 (OVCAR-3 ovarian) of the same compound?
A: 4.75 µM

Q: What about the TGI (OVCAR-3 ovarian) of the same compound?
A: 17.6 µM

Q: And the GI50 (MDA-MB-231 breast)?
A: 2.12 µM

Q: And the TGI (MDA-MB-231 breast)?
A: 4.77 µM

Q: What about the GI50 (MDA-MB-435) of the same compound?
A: 1.78 µM

Q: What about the TGI (MDA-MB-435) of the same compound?
A: 3.73 µM

Q: And the GI50 (U251 CNS)?
A: 2.61 µM

Q: What about the TGI (U251 CNS) of the same compound?
A: 7.9 µM

Q: And the GI50 (NCI-H23 lung)?
A: 2.25 µM

Q: What about the TGI (NCI-H23 lung) of the same compound?
A: 5.77 µM

Q: What about the GI50 (ACHN renal) of the same compound?
A: 2.68 µM

Q: What about the TGI (ACHN renal) of the same compound?
A: 7.47 µM

Q: What about the GI50 (NCI-H460 lung) of the same compound?
A: 1.89 µM

Q: And the TGI (NCI-H460 lung)?
A: 3.88 µM

Q: And the GI50 (SW-620 colon)?
A: 1.96 µM

Q: And the TGI (SW-620 colon)?
A: 4.01 µM

Q: What about the GI50 (SNB-19 CNS) of the same compound?
A: 2.8 µM

Q: What about the TGI (SNB-19 CNS) of the same compound?
A: 13.1 µM

Q: What about the GI50 (TK-10 renal) of the same compound?
A: 2 µM

Q: What about the TGI (TK-10 renal) of the same compound?
A: 5.82 µM

Q: And the GI50 (COLO 205 colon)?
A: 1.45 µM

Q: And the TGI (COLO 205 colon)?
A: 2.85 µM

Q: And the GI50 (RPMI-8226 leukemia)?
A: 1.49 µM

Q: What about the TGI (RPMI-8226 leukemia) of the same compound?
A: 3.42 µM

Q: And the GI50 (MCF7 breast)?
A: 1.56 µM

Q: And the TGI (MCF7 breast)?
A: 3.55 µM

Q: What about the GI50 (HCT-15 colon) of the same compound?
A: 3.17 µM

Q: What about the TGI (HCT-15 colon) of the same compound?
A: 10.8 µM

Q: What about the GI50 (K-562 leukemia) of the same compound?
A: 1.64 µM

Q: And the TGI (K-562 leukemia)?
A: 3.52 µM

Q: And the GI50 (786-0 renal)?
A: 1.63 µM

Q: And the TGI (786-0 renal)?
A: 3.61 µM

Q: What about the GI50 (HT29 colon) of the same compound?
A: 1.97 µM

Q: What about the TGI (HT29 colon) of the same compound?
A: 4.72 µM

Q: And the GI50 (HCC-2998 colon)?
A: 2.16 µM

Q: What about the TGI (HCC-2998 colon) of the same compound?
A: 3.67 µM

Q: What about the GI50 (IGROV1 ovarian) of the same compound?
A: 1.48 µM

Q: What about the TGI (IGROV1 ovarian) of the same compound?
A: 4.3 µM

Q: And the GI50 (SK-MEL-5 melanoma)?
A: 1.62 µM

Q: What about the TGI (SK-MEL-5 melanoma) of the same compound?
A: 3 µM

Q: What about the GI50 (SF-295 CNS) of the same compound?
A: 1.63 µM

Q: And the TGI (SF-295 CNS)?
A: 3.73 µM

Q: And the GI50 (SNB-75 CNS)?
A: 2.61 µM

Q: What about the TGI (SNB-75 CNS) of the same compound?
A: 8.09 µM

Q: What about the GI50 (CAKI-1 renal) of the same compound?
A: 0.278 µM

Q: What about the TGI (CAKI-1 renal) of the same compound?
A: 2.43 µM

Q: And the GI50 (HOP-62 NSCLC)?
A: 1.55 µM

Q: And the TGI (HOP-62 NSCLC)?
A: 3.07 µM

Q: What about the GI50 (NCI/ADR-RES ovarian) of the same compound?
A: 2.45 µM

Q: What about the TGI (NCI/ADR-RES ovarian) of the same compound?
A: 6.78 µM

Q: What about the GI50 (CCRF-CEM leukemia) of the same compound?
A: 2.38 µM

Q: And the TGI (CCRF-CEM leukemia)?
A: 6.92 µM

Q: What about the GI50 (HL-60(TB) leukemia) of the same compound?
A: 1.66 µM

Q: And the TGI (HL-60(TB) leukemia)?
A: 3.6 µM

Q: And the GI50 (SF-268 CNS)?
A: 5.33 µM

Q: And the TGI (SF-268 CNS)?
A: 18.7 µM

Q: What about the GI50 (SK-OV-3 ovarian) of the same compound?
A: 2.04 µM

Q: What about the TGI (SK-OV-3 ovarian) of the same compound?
A: 6.03 µM

Q: What about the GI50 (PC-3 prostate) of the same compound?
A: 2.14 µM

Q: And the TGI (PC-3 prostate)?
A: 7.49 µM

Q: And the GI50 (UACC-62 melanoma)?
A: 1.92 µM

Q: What about the TGI (UACC-62 melanoma) of the same compound?
A: 3.77 µM

Q: What about the GI50 (OVCAR-5 ovarian) of the same compound?
A: 1.97 µM

Q: And the TGI (OVCAR-5 ovarian)?
A: 3.64 µM

Q: And the GI50 (A549 NSCLC)?
A: 1.42 µM

Q: What about the TGI (A549 NSCLC) of the same compound?
A: 2.97 µM

Q: And the GI50 (EKVX NSCLC)?
A: 2.77 µM

Q: What about the TGI (EKVX NSCLC) of the same compound?
A: 13.1 µM

Q: And the GI50 (NCI-H226 lung)?
A: 2.24 µM

Q: And the TGI (NCI-H226 lung)?
A: 4.96 µM

Q: And the GI50 (BT-549 breast)?
A: 2.43 µM

Q: And the TGI (BT-549 breast)?
A: 9.59 µM

Q: And the GI50 (MALME-3M melanoma)?
A: 1.19 µM

Q: What about the TGI (MALME-3M melanoma) of the same compound?
A: 2.55 µM

Q: What about the GI50 (T-47D breast) of the same compound?
A: 2.02 µM

Q: And the TGI (T-47D breast)?
A: 6 µM

Q: And the GI50 (KM12 colon)?
A: 3.81 µM

Q: What about the TGI (KM12 colon) of the same compound?
A: 14.4 µM

Q: What about the GI50 (SF-539 CNS) of the same compound?
A: 1.97 µM

Q: And the TGI (SF-539 CNS)?
A: 5.98 µM

Q: What about the GI50 (A498 renal) of the same compound?
A: 1.91 µM

Q: What about the TGI (A498 renal) of the same compound?
A: 3.64 µM

Q: What about the GI50 (HOP-92 NSCLC) of the same compound?
A: 1.88 µM

Q: And the TGI (HOP-92 NSCLC)?
A: 7.56 µM

Q: What about the GI50 (HCT-116 colon) of the same compound?
A: 1.68 µM

Q: And the TGI (HCT-116 colon)?
A: 3.17 µM
